Data published in patent US20260234150A1, “COMPOUND FOR INHIBITING NLRP3, PREPARATION METHOD, AND USE” (DOVETREE MEDICINES UNUS, INC., priority 2023, published 2026).

Assays:
[1] = target: T1, His6-Flag-TEV-NLRP3 (134-1036) (Homo sapiens, UniProt Q96P20); assay: NLRP3 fluorescence polarization (FP) binding assay, competition with probe NP3-301; conditions: competition with NP3-301 for binding to NLRP3 (134-1036), 30 nM protein
T1 construct: fused on or other part: N-terminal His6 tag, Flag tag and TEV cleavage site
T1 sequence (Q96P20 134-1036 limits assumed): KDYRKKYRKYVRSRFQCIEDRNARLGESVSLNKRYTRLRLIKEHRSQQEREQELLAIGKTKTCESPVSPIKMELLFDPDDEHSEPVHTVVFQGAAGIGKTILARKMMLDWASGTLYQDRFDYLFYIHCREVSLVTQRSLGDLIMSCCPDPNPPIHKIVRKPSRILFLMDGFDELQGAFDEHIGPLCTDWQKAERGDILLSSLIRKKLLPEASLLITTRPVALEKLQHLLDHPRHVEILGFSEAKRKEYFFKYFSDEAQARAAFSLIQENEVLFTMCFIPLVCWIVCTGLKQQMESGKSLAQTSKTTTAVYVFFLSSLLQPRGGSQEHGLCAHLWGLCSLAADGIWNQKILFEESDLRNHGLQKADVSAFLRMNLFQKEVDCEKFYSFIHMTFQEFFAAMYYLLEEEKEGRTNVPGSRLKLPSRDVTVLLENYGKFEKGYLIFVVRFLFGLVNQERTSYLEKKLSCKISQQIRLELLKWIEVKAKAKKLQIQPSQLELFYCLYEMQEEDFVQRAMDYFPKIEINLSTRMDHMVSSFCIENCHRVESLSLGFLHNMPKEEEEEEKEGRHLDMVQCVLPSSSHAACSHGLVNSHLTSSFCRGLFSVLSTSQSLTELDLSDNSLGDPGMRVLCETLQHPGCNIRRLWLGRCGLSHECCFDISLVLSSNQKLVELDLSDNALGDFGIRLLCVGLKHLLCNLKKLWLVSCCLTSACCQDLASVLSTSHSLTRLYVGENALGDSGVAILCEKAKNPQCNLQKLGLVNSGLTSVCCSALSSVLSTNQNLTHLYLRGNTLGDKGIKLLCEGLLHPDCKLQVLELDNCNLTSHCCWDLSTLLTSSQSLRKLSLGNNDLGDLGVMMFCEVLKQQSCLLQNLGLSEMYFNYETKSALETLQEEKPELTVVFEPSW
Description: This experiment uses fluorescence polarization technology to detect and evaluate the binding assay.
The fluorescent probe used in this assay is the compound NP3-301 in the Journal of Molecular Biology (2021) 433, 167309, which was synthesized with reference to this literature.
His6-Flag-TEV-NLRP3 (134-1036) protein (SEQ NO. 1) was purchased from Kaihuiruizhi Biotech (Shanghai) Co., Ltd. (ChemPartner), and was customed for expression.
Prepare 1× assay buffer: 50 mM Hepes, pH 7.4, 150 mM NaCl, 2.5 mM MgCl2, 0.005% Tween-20, 1 mM TCEP, 100 μM ATP.
First, 2.5 μL of 4× compound solution was added to a black shallow 384-well plate (Greiner, 784076), the shallow well plate was sealed, and centrifuged at 1000 rpm for 1 min; then 2× NLPR3 protein solution (final concentration of 30 nM) was added, the shallow well plate was sealed, centrifuged at 1000 rpm for 1 min, and incubated at room temperature for 60 min. Finally, 2.5 μL of 4× NP3-301 (final concentration of 0.5 nM) was added, the shallow well plate was sealed, centrifuged at 1000 rpm for 1 min, and incubated at room temperature for 30 min. Envision was used to read the fluorescence polarization values of λex=485+20 nm and kem=535+25 nm. GraphPad Prism 9.5.0 was used to analyze the data, and the IC50 value of the competition between the compound and NP3-301 for binding to His6-Flag-TEV-NLRP3 (134-1036) was fitted by four-parameter logistic. The compounds of the present disclosure have good NLRP3 binding activity, and the test results of some representative compounds are shown in Table 1.

[2] = tested on: IL-1β secretion of THP-1 cells; assay: Effect of NLRP3 inhibitor on IL-1β secretion of THP-1 cells (AlphaLISA); type: cell-based; conditions: Homo sapiens; PMA, LPS and Nigericin stimulated THP-1 cells, IL-1β in supernatant; read-out: IC50 (nM), THP-1 cells to detect NLRP3 inhibitors
Description: This experiment used the PerkinElmer AlphaLISA_human_IL1β kit (AL220 C/F). The detection buffer was RPMI-1640+10FBS. AlphaLISA Immunoassay Buffer, AlphaLISA Anti-IL1β Acceptor beads, Streptavidin (SA)-coated Donor beads, and Biotinylated Antibody Anti-IL1β were all included in the kit.
The density of THP1 cells was adjusted to 4×10^5 cells/mL, PMA (final concentration 50 nM) was added, inoculated into 96-well flat-bottom plates at 200 μL/well, and stimulated overnight at 37° C., 5% CO2 (try to <16h). The next day, the supernatant was discarded, and the flat washed twice with DPBS ([…]/time). Then LPS solution (final concentration of 100 ng/ml) was added at 198 μL/well, incubated at 37° C., 5% CO2 for 3h. 1 μL of the corresponding concentration of compounds was added to each well according to the experimental MAP, incubated at 37° C., 5% CO2 for 1 h. 1 μL Nigericin (final concentration of […]) was added to each well, incubated overnight at 5% CO2 (>18h). On the third day, 5 μL of supernatant was taken, diluted 20 times, and the content of IL-Iβ in the supernatant was detected by Human Interleukin 1 beta (IL1β) Kit. Envision was used to read the AlphaLISA test value of Ex=680/[…]. GraphPad Prism 9.5.0 was used to analyze the data, and the IC50 value of the compound for IL-Iβ antagonism was fitted by four-parameter Logistic.

[3] = tested on: iodoacetic acid (MIA)-induced SD rat knee osteoarthritis model; assay: Iodoacetic acid (MIA)-induced SD rat knee osteoarthritis model; type: in vivo, SD rats; conditions: 30 mg/kg orally once a day from Day 7 to Day 42
Description: Purpose: Evaluate the efficacy of MCC950 (Positive reference compound) and compound 111 of the present disclosure on iodoacetic acid (MIA)-induced SD rat knee osteoarthritis model.
Experimental materials: Experimental male SD rats, 4 weeks old.
Model induction began after the experimental animals were adapted to the animal environment for 7 days. Day 0, the rats were anesthetized, the hair around the left knee joint was removed, and the skin was disinfected. The left leg was flexed 90° to expose the patellar platform. The depression in the middle of the platform was touched by hand to find the femoral condyle, patella and ligament. The syringe needle was inserted from the bottom of the patella on both sides of the patellar ligament to the direction of the femoral condyle. When a clear sense of empty space was felt, 50 μL of iodoacetic acid solution was injected. Day 7 Grouping was performed according to the width of the knee joint on the induced side. The groups were: normal control group (healthy control without modeling, 5% DMSO+10% Solutol+85% Saline), model blank control group (5% DMSO+10% Solutol+85% Saline), MCC950 30 mg/kg, and compound 111 of the present disclosure 30 mg/kg. Starting from Day 7, the normal control group and the model blank control group were given the solvent (5% DMSO+10% Solutol+85% Saline) orally once a day, and the other groups were given the corresponding compounds orally once a day until the end of the administration on Day 42. The knee joint width and body weight of the rats were measured once on Day 7, 14, 21, 28, 35, and 42.

SMILES	IC50 [1]	IC50 [2]	body weight of the rats [3]	widening of the knee joints (knee joint width) ([3]; compared with model blank control group, 21 days to 42 days after modeling)
Cc1cc(C(F)(F)F)cc(O)c1-c1ccc2nc(N3CCOCC3)nn2n1 [Compound 423]	≤ 100 nM	100 to 500 nM		
Cc1cc(C(F)(F)F)cc(O)c1-c1cc(C)c2nc(N3CCOCC3)nn2n1 [Compound 424]	≤ 100 nM	< 50 nM		
Cc1cc(C(F)(F)F)cc(O)c1-c1ccn2nc(N3CCOCC3)nc2n1 [Compound 426]	≤ 100 nM	< 50 nM		
CCN1CCC[C@@H](Nc2nc3ccc(-c4c(C)cc(C(F)(F)F)cc4O)nn3n2)C1 [Compound 439]	≤ 100 nM	< 50 nM		
Cc1cc(C(F)(F)F)cc(O)c1-c1cc(C)n2nc(N3CCOCC3)nc2n1 [Compound 440]	≤ 100 nM	50 to 100 nM		
CC(=O)NC[C@@H]1COCCN1c1nc2nc(-c3c(C)cc(C(F)(F)F)cc3O)cc(C)n2n1 [Compound 441]	≤ 100 nM	< 50 nM		
CC(=O)NC[C@@H]1COCCN1c1nc2c(C)cc(-c3c(C)cc(C(F)(F)F)cc3O)nn2n1 [Compound 442]	≤ 100 nM	< 50 nM		
Cc1cc(C(F)(F)F)cc(O)c1-c1cc(C)n2nc(N[C@@H]3CCCN(C)C3)nc2n1 [Compound 443]	≤ 100 nM	< 50 nM		
Cc1cc(C(F)(F)F)cc(O)c1-c1ccn2nc(N[C@@H]3CCCN(C)C3)nc2n1 [Compound 444]	≤ 100 nM	< 50 nM		
Cc1cc(C(F)(F)F)cc(O)c1-c1ccc2nc(N[C@@H]3CCCN(C)C3)nn2n1 [Compound 445]	≤ 100 nM	< 50 nM		
Cc1cc(C(F)(F)F)cc(O)c1-c1cc(C)c2nc(N[C@@H]3CCCN(C)C3)nn2n1 [Compound 446]	≤ 100 nM	< 50 nM		
CCN1CCC[C@@H](Nc2nc3c(C)cc(-c4c(C)cc(C(F)(F)F)cc4O)nn3n2)C1 [Compound 447]	≤ 100 nM	< 50 nM		
CCN1CCC[C@@H](Nc2nc3nc(-c4c(C)cc(C(F)(F)F)cc4O)ccn3n2)C1 [Compound 448]	≤ 100 nM	< 50 nM		
CC(=O)N1CCOC[C@H]1CNc1nc2nc(-c3c(C)cc(C(F)(F)F)cc3O)cc(C)c2o1 [Compound 451]	≤ 100 nM	50 to 100 nM		
Cc1cc(C(F)(F)F)cc(O)c1-c1cc(C)c2nc(N[C@@H]3CCCN(CCO)C3)nn2n1 [Compound 456]	≤ 100 nM	< 50 nM		
Cc1cc(C(F)(F)F)cc(O)c1-c1cc(C)n2nc(N[C@H]3CCCN(CCO)C3)nc2n1 [Compound 460]	≤ 100 nM	< 50 nM		
CCN1CCC[C@H](Nc2nc3nc(-c4c(C)cc(C(F)(F)F)cc4O)cc(C)n3n2)C1 [Compound 462]	≤ 100 nM	< 50 nM		
CC(C)(O)c1coc(S(=O)(=O)NC(=O)Nc2c3c(cc4c2CCC4)CCC3)c1 [MCC950]			without affecting the body weight of the rats	could significantly inhibit the widening of the knee joints

Further lines, with some results ahead:

IC50 [1]	IC50 [2]	SMILES	body weight of the rats [3]	widening of the knee joints (knee joint width) ([3]; compared with model blank control group, 21 days to 42 days after modeling)
≤ 100 nM	< 50 nM	Cc1cc(C(F)(F)F)cc(O)c1-c1ccc2oc(N3CCN(S(=O)(=O)C4CC4)CC3)nc2n1 [Compound 392]		
≤ 100 nM	50 to 100 nM	CCS(=O)(=O)N1CCN(c2nc3nc(-c4c(C)cc(C(F)(F)F)cc4O)ccc3o2)C[C@@H]1C [Compound 394]		
≤ 100 nM	100 to 500 nM	CCN1C[C@H](F)C[C@@H](Nc2nc3nc(-c4c(C)cc(C(F)(F)F)cc4O)ccc3o2)C1 [Compound 397]		
≤ 100 nM	< 50 nM	Cc1cc(C(F)(F)F)cc(O)c1-c1ccc2oc(N[C@@H]3CCCN(C4CC4)C3)nc2n1 [Compound 399]		
≤ 100 nM	< 50 nM	Cc1cc(C(F)(F)F)cc(O)c1-c1ccc2oc(N[C@@H]3CCCN(C(C)C)C3)nc2n1 [Compound 400]		
≤ 100 nM	< 50 nM	Cc1cc(C(F)(F)F)cc(O)c1-c1ccc2oc(N[C@@H]3CCCN(CCO)C3)nc2n1 [Compound 404]		
≤ 100 nM	50 to 100 nM	Cc1cc(C(F)(F)F)cc(O)c1-c1ccc2oc(NC[C@@H](C)O)nc2n1 [Compound 413]		
≤ 100 nM	100 to 500 nM	Cc1cc(C(F)(F)F)cc(O)c1-c1ccc2nc(N3CCS(=O)(=O)CC3)nn2n1 [Compound 422]		
